Reference: ChEMBL document CHEMBL4616721, “Nitrogen-Walk Approach to Explore Bioisosteric Replacements in a Series of Potent A2B Adenosine Receptor Antagonists” (J Med Chem, 2020)

Key:
Cytochrome P450 3A4 = Cytochrome P450 3A4 (Homo sapiens, UniProt P08684); test: Inhibition of CYP3A4 (unknown origin) expressed in insect cell microsomes using dibenzylfluorescein substrate by fluorescence based assay; assay type: ADME
CYP2D6 [1] = target: T1, CYP2D6 (Homo sapiens, UniProt P10635); test: Inhibition of CYP2D6 (unknown origin) expressed in insect cell microsomes at 10 uM using dibenzylfluorescein substrate by fluorescence based assay relative to control; assay type: ADME; details: insect cell microsomes expressing CYP2D6, probe dibenzylfluorescein
[2] = Solubility in pH 7 PBS incubated for 4 hrs by nephelometry; assay type: physicochemical
CYP2D6 [3] = target: T1, CYP2D6; test: Inhibition of CYP2D6 (unknown origin) expressed in insect cell microsomes at 1 uM using dibenzylfluorescein substrate by fluorescence based assay relative to control; assay type: ADME; details: insect cell microsomes expressing CYP2D6, probe dibenzylfluorescein
[4] = Drug metabolism in human liver microsomes after 60 mins in presence of NADP,glucose-6-phosphate and glucose-6-phosphate dehydrogenase by UPLC-MS/MS analysis; assay type: ADME, Microsome; details: read-out: Drug metabolism
Adenosine receptor A1 = target: T2, Adenosine receptor A1 (Homo sapiens, UniProt P30542); test: Displacement [3H]DPCPX from human adenosine A1 receptor expressed in CHO cell membranes incubated for 60 mins by scintillation counting method
T2 sequence (P30542 whole entry): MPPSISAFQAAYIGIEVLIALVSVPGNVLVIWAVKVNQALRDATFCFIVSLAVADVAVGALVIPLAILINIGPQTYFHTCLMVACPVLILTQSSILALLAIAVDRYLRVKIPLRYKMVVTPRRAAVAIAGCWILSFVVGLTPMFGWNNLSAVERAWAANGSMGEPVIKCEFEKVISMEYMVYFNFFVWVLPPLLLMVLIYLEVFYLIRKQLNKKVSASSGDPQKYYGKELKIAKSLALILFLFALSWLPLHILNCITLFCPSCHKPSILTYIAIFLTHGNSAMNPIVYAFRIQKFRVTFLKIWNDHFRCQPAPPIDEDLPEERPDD

Adenosine receptor A3 = target: T3, Adenosine receptor A3 (Homo sapiens, UniProt P0DMS8); test: Displacement [3H]NECA from adenosine A3 receptor in human HeLa cell membranes incubated for 180 mins by scintillation counting method
T3 sequence (P0DMS8 whole entry): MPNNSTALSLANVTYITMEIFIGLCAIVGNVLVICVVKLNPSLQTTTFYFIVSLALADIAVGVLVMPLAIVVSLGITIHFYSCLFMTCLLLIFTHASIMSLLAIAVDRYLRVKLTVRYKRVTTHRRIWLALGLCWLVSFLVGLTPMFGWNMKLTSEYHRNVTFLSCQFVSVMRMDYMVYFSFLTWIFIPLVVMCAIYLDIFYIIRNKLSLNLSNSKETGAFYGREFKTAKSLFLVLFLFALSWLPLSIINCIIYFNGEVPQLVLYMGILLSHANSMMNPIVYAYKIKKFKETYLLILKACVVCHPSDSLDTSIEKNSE

Adenosine receptor A2a = Adenosine receptor A2a (Homo sapiens, UniProt P29274); test: Displacement [3H]ZM241385 from adenosine A2A receptor in human HeLa cell membranes incubated for 30 mins by scintillation counting method
Adenosine receptor A2b = target: T4, Adenosine receptor A2b (Homo sapiens, UniProt P29275); test: Displacement [3H]DPCPX from human adenosine A2B receptor expressed in HEK293 cell membranes incubated for 60 mins by scintillation counting method
T4 sequence (P29275 whole entry): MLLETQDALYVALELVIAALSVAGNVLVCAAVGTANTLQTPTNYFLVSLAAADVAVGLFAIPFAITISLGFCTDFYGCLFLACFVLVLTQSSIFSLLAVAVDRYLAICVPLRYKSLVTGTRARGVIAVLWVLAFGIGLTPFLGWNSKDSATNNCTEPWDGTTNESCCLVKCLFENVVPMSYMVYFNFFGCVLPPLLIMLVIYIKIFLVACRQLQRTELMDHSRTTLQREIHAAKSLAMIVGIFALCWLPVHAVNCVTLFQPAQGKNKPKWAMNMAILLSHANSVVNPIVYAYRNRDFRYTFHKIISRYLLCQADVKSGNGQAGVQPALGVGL

T1 sequence (P10635 whole entry): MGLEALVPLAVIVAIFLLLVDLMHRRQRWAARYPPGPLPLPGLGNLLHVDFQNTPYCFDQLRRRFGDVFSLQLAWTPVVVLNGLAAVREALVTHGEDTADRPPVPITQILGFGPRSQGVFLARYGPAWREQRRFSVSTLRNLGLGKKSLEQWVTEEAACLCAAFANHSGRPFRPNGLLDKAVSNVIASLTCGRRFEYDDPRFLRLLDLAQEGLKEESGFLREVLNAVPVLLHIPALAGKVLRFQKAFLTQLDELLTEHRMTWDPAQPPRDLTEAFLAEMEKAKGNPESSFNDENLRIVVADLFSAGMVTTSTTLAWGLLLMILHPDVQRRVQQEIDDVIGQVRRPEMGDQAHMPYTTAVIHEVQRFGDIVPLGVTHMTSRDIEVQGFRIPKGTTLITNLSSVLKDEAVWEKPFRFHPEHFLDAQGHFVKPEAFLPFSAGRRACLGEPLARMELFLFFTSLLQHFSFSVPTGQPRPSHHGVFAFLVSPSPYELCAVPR
Chain of Cytochrome P450 3A4 (P08684 whole entry): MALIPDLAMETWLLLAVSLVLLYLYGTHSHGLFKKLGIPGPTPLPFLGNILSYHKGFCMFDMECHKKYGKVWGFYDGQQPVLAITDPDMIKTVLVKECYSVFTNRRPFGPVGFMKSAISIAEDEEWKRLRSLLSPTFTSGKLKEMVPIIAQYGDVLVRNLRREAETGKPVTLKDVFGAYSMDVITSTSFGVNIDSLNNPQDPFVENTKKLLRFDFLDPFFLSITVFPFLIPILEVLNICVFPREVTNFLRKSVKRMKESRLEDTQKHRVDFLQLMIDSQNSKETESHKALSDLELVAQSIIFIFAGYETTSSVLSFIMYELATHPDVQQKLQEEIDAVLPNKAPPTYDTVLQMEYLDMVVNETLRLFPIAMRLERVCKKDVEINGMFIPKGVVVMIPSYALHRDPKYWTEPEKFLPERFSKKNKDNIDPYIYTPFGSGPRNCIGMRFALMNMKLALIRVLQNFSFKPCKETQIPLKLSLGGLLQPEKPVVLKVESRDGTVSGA
Chain of Adenosine receptor A2a (P29274 whole entry): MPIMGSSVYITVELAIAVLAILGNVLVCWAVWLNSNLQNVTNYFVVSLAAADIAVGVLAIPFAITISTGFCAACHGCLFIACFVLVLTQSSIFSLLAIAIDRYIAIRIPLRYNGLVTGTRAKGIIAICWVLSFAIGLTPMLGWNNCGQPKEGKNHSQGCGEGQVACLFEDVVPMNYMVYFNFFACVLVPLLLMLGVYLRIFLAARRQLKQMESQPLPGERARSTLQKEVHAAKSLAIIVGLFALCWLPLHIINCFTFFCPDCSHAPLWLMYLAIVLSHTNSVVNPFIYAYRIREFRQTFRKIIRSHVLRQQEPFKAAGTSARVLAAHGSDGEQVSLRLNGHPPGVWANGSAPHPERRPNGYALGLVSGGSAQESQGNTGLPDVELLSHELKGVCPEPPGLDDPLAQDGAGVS

IC50 (Cytochrome P450 3A4) [µM] | inhibition at 10 µM (CYP2D6 [1]) [%] | solubility kinetic at 4 h [2] [µM] | inhibition at 1 µM (CYP2D6 [3]) [%] | metabolised at 1 h [4] [%] | Ki (Adenosine receptor A1) [nM] | Ki (Adenosine receptor A3) [nM] | Ki (Adenosine receptor A2a) [nM] | Ki (Adenosine receptor A2b) [nM] | Compound
6.41 | 19 | > 20 | 13 | 5.62 |  |  |  |  | CCOC(=O)C1=C(C)Nc2nc3ccccc3n2C1c1cocn1 (racemic)
 |  |  |  |  | 233 | 418 | 282 | 508 | CCOC(=O)C1=C(C)Nc2nc3ccccc3n2C1c1cnco1 (racemic)
